The structures appear in SMILES notation.

The assay concerns caspase-8, PARP and cytochrome C in MCF-7DOX cells. As to the kind of experiment: Immunoblotting of apoptosis markers, MCF-7DOX. The class given is cell-based, human. The method, then: For preparation of mitochondrial and cytoplasmic cellular fractions, MCF-7, MCF-7TAX, and MCF-7DOX cells were grown in a monolayer to 70-90% confluence on 10 cm tissue culture plates. Twenty-four hours prior to extraction, the cells were treated with 50 nM light-activated calphostin C as described above. After this treatment, the cells were trypsinized, centrifuged at 1000 rpm in a Beckman GP centrifuge and washed with PBS. To the resulting cell pellet, 1 ml of ice-cold homogenization (HM) buffer was added. This buffer consisted of 85.55 g sucrose, 1.406 g MOPS, 0.292 g EDTA, and 1 ml ethanol per liter of solution, with a final pH of 7.2. Prior to use, 0.2 ml of 0.1 M PMSF, 1 Complete™ protease inhibitor tablet (Roche Diagnostics, Laval, QC), and 20 μl of 1 M DTT was added for 100 ml of HM buffer. Cells were then lysed 10 times by homogenization in a 2 ml dounce homogenizer. Nuclei in the lysate were then pelleted by centrifugation in a microfuge tube at 70 g for 10 minutes at 4° C. and the supernatant carefully removed. The supernatant was clarified by centrifugation at 1950 g for 10 minutes at 4° C. and the pellet (containing mitochondria) was resuspended in 50 μl of HM buffer. The remaining clarified supernatant was deemed the cytoplasmic fraction. […]

As to `COc1c(C[C@@H](C)OC(=O)Oc2ccc(O)cc2)c2c3c(C[C@@H](C)OC(=O)c4ccccc4)c(OC)c(=O)c4c(O)cc(OC)c(c5c(OC)cc(O)c(c1=O)c52)c43` [calphostin C], the “caspase-8 and PARP cleavage (protein levels)” value (light-activated calphostin C, whole cell extracts) is “did not result in any change”. For the same compound, for the setting “mitochondrial and cytoplasmic fractions”, the “release of cytochrome C from mitochondria” value is “no clear evidence for the release of cytochrome C”.

For the origin of these results see patent publication US7371780B2, “Use of calphostin C to treat drug-resistant tumor cells” (priority 2003, dated 2008).
